Format in all cases: functional
Assay [1] deals with Porphyromonas gingivalis. Nature of the assay: Antimicrobial activity against Porphyromonas gingivalis ATCC 33277 by disk diffusion method. (In general: Agar diffusion results depend on both activity and mobility in agar.)
The subject of assay [2] is Prevotella intermedia. Nature of the assay: Antimicrobial activity against Prevotella intermedia by disk diffusion method.
The subject of assay [3] is Streptococcus mutans. The assay is described as follows: Antimicrobial activity against Streptococcus mutans Ingbritt by disk diffusion method.
In assay [4] the test system is Actinomyces viscosus. The assay is described as follows: Antimicrobial activity against Actinomyces viscosus W1053 by disk diffusion method.

Values after ≈ are worked out from the molar mass of the structure shown.

Usually MIC stands for the lowest concentration that inhibits growth of the organism. `O=c1oc2c(O)c(O)cc3c(=O)oc4c(O)c(O)cc1c4c23` [ELLAGIC ACID]: the MIC in assay [1], in assay [2], in assay [3] and in assay [4] was 1250 µg/mL (≈ 4140 µM) each time.

As for `C[n+]1cc2c3c(ccc2c2ccc4cc5c(cc4c21)OCO5)OCO3` [SANGUINARIUM], the MIC is 2 µg/mL in assay [1], 2 µg/mL in assay [2], 15 µg/mL in assay [3] and 15 µg/mL in assay [4].

For the compound `Cc1cc(=O)c2c(O)c([C@@H]3O[C@H](CO)[C@@H](O)[C@H](O)[C@H]3O)c(O)cc2o1` [BIFLORIN], the MIC in assay [1] is 625 µg/mL (≈ 1760 µM); in assay [2], 625 µg/mL (≈ 1760 µM); in assay [3], above 2500 µg/mL; in assay [4], above 2500 µg/mL.

With `O=c1c(O)c(-c2ccc(O)cc2)oc2cc(O)cc(O)c12` [KAEMPFEROL], the minimal inhibitory concentration (MIC) in assay [1] is 20 µg/mL (≈ 69.9 µM); in assay [2], 20 µg/mL (≈ 69.9 µM); in assay [3], 2500 µg/mL (≈ 8730 µM); in assay [4] it was 1250 µg/mL (≈ 4370 µM).

For `O=C(O)c1cc(O)c(O)c(O)c1` [GALLIC ACID], the minimum inhibitory concentration (MIC) in assay [1] was 156 µg/mL (≈ 917 µM); in assay [2], 78 µg/mL (≈ 458 µM); in assay [3], above 2500 µg/mL; in assay [4], 78 µg/mL (≈ 458 µM).

Turning to `COc1cc(O)c2c(=O)c(O)c(-c3ccc(O)cc3)oc2c1` [RHAMNOCITRIN], the MIC amounted to 625 µg/mL (≈ 2080 µM) in assay [1], 625 µg/mL (≈ 2080 µM) in assay [2], 1250 µg/mL (≈ 4160 µM) in assay [3] and 1250 µg/mL (≈ 4160 µM) in assay [4].

For the compound `O=c1c(O)c(-c2cc(O)c(O)c(O)c2)oc2cc(O)cc(O)c12` [MYRICETIN], the MIC stood at 20 µg/mL (≈ 62.8 µM) in assay [1], 20 µg/mL (≈ 62.8 µM) in assay [2], 2500 µg/mL (≈ 7860 µM) in assay [3] and 1250 µg/mL (≈ 3930 µM) in assay [4].

`CC1(C)CC[C@]2(C(=O)O)CC[C@]3(C)C(=CC[C@@H]4[C@@]5(C)CC[C@H](O)C(C)(C)[C@@H]5CC[C@]43C)[C@@H]2C1` [OLEANOLIC_ACID]: the minimal inhibitory concentration (MIC) is 625 µg/mL (≈ 1370 µM) in assay [1], 1250 µg/mL (≈ 2740 µM) in assay [2], 1250 µg/mL (≈ 2740 µM) in assay [3] and 625 µg/mL (≈ 1370 µM) in assay [4].

The record behind these values is ChEMBL document CHEMBL1158297, “Compounds from Syzygium aromaticum possessing growth inhibitory activity against oral pathogens” (1996).
